The target in data set [1] is SARS-CoV-2 main protease (Mpro) (Severe acute respiratory syndrome coronavirus 2, UniProt P0DTD1). The data set can be described thus: biochemical. Conditions: read-out: Enzyme IC50.
The test system of data set [2] is SARS-CoV-2 (strain USA-WA1/2020). The data set can be described thus: microbe, parasite or virus in culture. The format is cell-based.
For data set [3], the system named is HeLa-ACE2 cells. The data set can be described thus: cells. The format is cell-based. Conditions: Table 2, total cell count in infected plates.
A short description of data set [4]: Uninfected host cell cytotoxicity counter screen. Conditions: human. It is filed as cell-based. Here is the method: Uninfected host cell cytotoxicity counter screen: HeLa-ACE2 cells were maintained as described for the infection assay and seeded in the assay-ready plates at 400 cells/well. Plates were incubated for 24 hours at 37° C. 5% CO2. To assess cell viability, the Image-iT DEAD green reagent was used according to manufacturer instructions. Cells were fixed with 4% paraformaldehyde, and counterstained with DAPI. Fixed cells are imaged as described above.
Viral replication data analysis: Data from the primary screen and the host cell cytotoxicity screen are normalized to neutral (DMSO) […] inhibitor controls (2.5 μM Remdesivir for antiviral effect and 10 μM puromycin for infected host cell toxicity). For the uninfected host cell cytotoxicity counter-screen 40 μM puromycin is used as the positive control. Concentration response experiments will be tested in triplicate.

Setting [5] is: Severe acute respiratory syndrome coronavirus 2, Table 2, SARS-CoV-2 infected HeLa-ACE2 cells, read-out: CoV-2 HeLa EC50.
Setting [6] is: Severe acute respiratory syndrome coronavirus 2, HeLa-ACE2, read-out: CoV-2 HeLa EC50, Table 2, SARS-CoV-2 infected HeLa-ACE2 cells.
Where [7] appears, read: Table 3, select example compounds against mpro.
[8] abbreviates: Severe acute respiratory syndrome coronavirus 2, HeLa, Table 3, read-out: CoV-2 HeLa EC50.

Where two headings read alike, the source gives them in different places.

A word on the IC50: it is the midpoint of a concentration-inhibition curve. Broadly, the EC50 is the concentration that produces a half-maximal response. What is called CC50 is the concentration giving 50% cytotoxicity. As for `O=C(c1cncnc1)N1CCN(C(c2ccccc2)c2ccccc2)CC1` [AA-577, (4-benzhydrylpiperazin-1-yl)(pyrimidin-5-yl)methanone], in data set [1] (Table 2), the IC50 was determined as 8.3 µM. Moreover, the EC50 in data set [2] (setting [5]) is 8.51 µM; in data set [3], greater than 9.61 µM. In data set [4], this compound came in with a CC50 at 24 h greater than 39.8 µM.
`O=C(NC1CN(C(c2ccccc2)c2ccccc2)C1)c1cccnc1` [AA-603, N-(1-benzhydrylazetidin-3-yl)nicotinamide]: the 50% effective concentration (EC50) in data set [2] (setting [6]) and in data set [3] was greater than 9.61 µM throughout. In data set [4], the CC50 at 24 h was greater than 39.8 µM.
Consider `O=C(c1cnc(Cl)c(Cl)c1)N1CCN(C(c2ccccc2)c2ccccc2)CC1` [AA-608, (4-benzhydrylpiperazin-1-yl)(5,6-dichloropyridin-3-yl)methanone], for which the EC50 in data set [2] (setting [5]) was determined as 1.74 µM; in data set [3], 0.863 µM. This compound gave a CC50 at 24 h in data set [4] greater than 39.8 µM.
As for `Cc1ccc(C(=O)N2CCN(C(c3ccccc3)c3ccccc3)CC2)cn1` [AA-612, (4-benzhydrylpiperazin-1-yl)(6-methylpyridin-3-yl)methanone], the values for the EC50 in data set [2] (setting [5]) and in data set [3] were 1.74 µM and 0.863 µM, respectively. In data set [4], this compound had a CC50 at 24 h greater than 39.8 µM.
With `Cc1cncc(C(=O)N2CC3CC(C2)N3C(c2ccccc2)c2ccccc2)c1` [AA-614, (6-benzhydryl-3,6-diazabicyclo[3.1.1]heptan-3-yl)(5-methylpyridin-3-yl)methanone], the EC50 in data set [2] (setting [6]) and in data set [3] was greater than 9.61 µM in each case. In addition, in data set [4] (Table 2, uninfected cells, 24 hours, read-out: Uninfected HeLa-ACE2 CC50), the CC50 at 24 h was greater than 39.8 µM.
For the compound `Cc1cncc(CN2CCN(C(c3ccccc3)c3ccccc3)CC2=O)c1` [AA-645, 4-benzhydryl-1-((5-methylpyridin-3-yl)methyl)piperazin-2-one], the EC50 in data set [2] (setting [6]) and in data set [3] was greater than 9.61 µM throughout. The CC50 at 24 h in data set [4] is greater than 39.8 µM.
In the case of `c1ccc(C(c2ccccc2)N2CCN(c3nccc4ccncc34)CC2)cc1` [AA-649, 1-(4-benzhydrylpiperazin-1-yl)-2,7-naphthyridine], the EC50 in data set [2] (setting [6]) and in data set [3] was greater than 9.61 µM throughout. In data set [4], this compound showed a CC50 at 24 h greater than 39.8 µM.
Regarding `O=C(c1cnc2ccccc2c1)N1CCN(C(c2ccccc2)c2ccccc2)CC1` [MKP-1167, 3-[4-(diphenylmethyl)piperazine-1-carbonyl]quinoline], the EC50 in data set [2] (setting [6]) and in data set [3] was greater than 9.61 µM each time. Besides, the CC50 at 24 h in data set [4] is greater than 39.8 µM.
As for `C=C(C)C(=O)N1CCN(C(c2ccccc2)c2ccccc2)CC1` [MKP-1219, 1-[4-(diphenylmethyl)piperazin-1-yl]-2-methylprop-2-en-1-one], the EC50 in data set [2] (setting [6]) and in data set [3] was greater than 9.61 µM throughout. Moreover, in data set [4], the CC50 at 24 h was greater than 39.8 µM.
Consider `N#Cc1ccc(C(=O)N2CCN(C(c3ccccc3)c3ccccc3)CC2)cn1` [MKP-1229, 5-[4-(diphenylmethyl)piperazine-1-carbonyl]pyridine-2-carbonitrile], for which the EC50 in data set [2] (setting [6]) and in data set [3] was greater than 9.61 µM each time. This compound registered a CC50 at 24 h in data set [4] greater than 39.8 µM.
Regarding `N#CC(c1cccnc1)N1CCN(C(c2ccccc2)c2ccccc2)CC1` (stereo not drawn) [MKP-1306, 2-[4-(diphenylmethyl)piperazin-1-yl]-2-(pyridin-3-yl)acetonitrile], the EC50 in data set [2] (setting [6]) and in data set [3] was greater than 9.61 µM each time. Also, the CC50 at 24 h in data set [4] was greater than 39.8 µM.
With `Cc1cncc(CN2CCN(C(c3ccccc3)c3ccccc3)CC2)c1` [MKP-1307, 1-(diphenylmethyl)-4-[(5-methylpyridin-3-yl)methyl]piperazine], the EC50 in data set [2] (setting [6]) and in data set [3] was greater than 9.61 µM throughout. The compound further showed a CC50 at 24 h in data set [4] greater than 39.8 µM.
For the compound `Nc1ccc(C(=O)N2CCN(C(c3ccccc3)c3ccccc3)CC2)cn1` [MKP-1309, 5-[4-(diphenylmethyl)piperazine-1-carbonyl]pyridin-2-amine], the EC50 in data set [2] (setting [6]) and in data set [3] was greater than 9.61 µM each time. In data set [4], this compound gave a CC50 at 24 h greater than 39.8 µM.
As for `O=C(c1cncs1)N1CCN(C(c2ccccc2)c2ccccc2)CC1` [MKP-1318, 1-(diphenylmethyl)-4-(1,3-thiazole-5-carbonyl)piperazine], the EC50 in data set [2] (setting [6]) and in data set [3] was greater than 9.61 µM throughout. In data set [4], this compound came in with a CC50 at 24 h greater than 39.8 µM.
For `Nc1ncc(C(=O)N2CCN(C(c3ccccc3)c3ccccc3)CC2)cn1` [MKP-1322, 5-[4-(diphenylmethyl)piperazine-1-carbonyl]pyrimidin-2-amine], the EC50 in data set [2] (setting [6]) and in data set [3] was greater than 9.61 µM each time. The CC50 at 24 h in data set [4] is greater than 39.8 µM.
Consider `Cc1cncc(NC(=O)N2CCN(C(c3ccccc3)c3ccccc3)CC2)c1` [MKP-1323, 4-benzhydryl-N-(5-methylpyridin-3-yl)piperazine-1-carboxamide], for which the EC50 in data set [2] (setting [6]) and in data set [3] was greater than 9.61 µM in each case. The same compound came in with a CC50 at 24 h in data set [4] of 31.7 µM.
Regarding `O=C(c1ccon1)N1CCN(C(c2ccccc2)c2ccccc2)CC1` [MKP-1324, 1-(diphenylmethyl)-4-(1,2-oxazole-3-carbonyl)piperazine], the EC50 in data set [2] (setting [6]) and in data set [3] was greater than 9.61 µM each time. In data set [4], this compound displayed a CC50 at 24 h greater than 39.8 µM.
On to `Cc1oncc1C(=O)N1CCN(C(c2ccccc2)c2ccccc2)CC1` [MKP-1332, (4-benzhydrylpiperazin-1-yl)(5-methylisoxazol-4-yl)methanone], for which the EC50 in data set [2] (setting [6]) and in data set [3] was greater than 9.61 µM in each case. Also, in data set [4], the CC50 at 24 h was greater than 39.8 µM.
For the compound `O=C1CC(C(=O)N2CCC(C(O)(c3ccccc3)c3ccccc3)CC2)CCN1` (stereo not drawn) [NZ-789, 4-[4-(hydroxydiphenylmethyl)piperidine-1-carbonyl]piperidin-2-one], the EC50 in data set [2] (setting [6]) and in data set [3] was greater than 9.61 µM in each case. The same compound came in with a CC50 at 24 h in data set [4] greater than 39.8 µM.
As to `O=C1CC(C(=O)N2CCC(C(O)(c3ccccc3)c3ccccc3)CC2)CN1` (stereo not drawn) [NZ-790, 4-[4-(hydroxydiphenylmethyl)piperidine-1-carbonyl]pyrrolidin-2-one], the EC50 in data set [2] (setting [6]) and in data set [3] was greater than 9.61 µM throughout. In data set [4], this compound returned a CC50 at 24 h greater than 39.8 µM.
In the case of `O=Cc1ccccc1C(=O)N1CCC(C(O)(c2ccccc2)c2ccccc2)CC1` [NZ-791, 2-[4-(hydroxydiphenylmethyl)piperidine-1-carbonyl]benzaldehyde], the EC50 in data set [2] (setting [6]) and in data set [3] was greater than 9.61 µM throughout. Moreover, the CC50 at 24 h in data set [4] is greater than 39.8 µM.
For `O=C1CC(CC(=O)N2CCN(C3c4ccccc4CS(=O)(=O)c4ccccc43)CC2)c2ccccc2N1` (stereo not drawn) [NZ-811, 4-[2-[4-(5,5-dioxo-6,11-dihydrobenzo[c][1]benzothiepin-11-yl)piperazin-1-yl]-2-oxo-ethyl]-3,4-dihydro-1H-quinolin-2-one], the EC50 in data set [2] (setting [6]) and in data set [3] was greater than 9.61 µM throughout. The CC50 at 24 h in data set [4] is greater than 39.8 µM.
Take `CS(=O)(=O)c1ccccc1C(c1cccc(F)c1)N1CCN(C(=O)c2cncc3cc[nH]c23)CC1` (stereo not drawn) [NZ-816, [4-[(3-fluorophenyl)-(2-methylsulfonylphenyl)methyl]piperazin-1-yl]-(1H-pyrrolo[3,2-c]pyridin-7-yl)methanone]: the IC50 in data set [1] (Table 2) came out at 0.03 µM; in data set [1] (setting [7]), 0.017 µM. The EC50 in data set [2] (setting [8]) was found to be 0.04 µM.
On to `O=C(c1cncc2cn[nH]c12)N1CCC(=C2c3ccccc3CS(=O)(=O)c3ccccc32)CC1` [NZ-821, [4-(5,5-dioxo-6H-benzo[c][1]benzothiepin-11-ylidene)-1-piperidyl]-(1H-pyrazolo[4,3-c]pyridin-7-yl)methanone], for which the IC50 in data set [1] (Table 2) and in data set [1] (setting [7]) was 0.044 µM throughout. In addition, in data set [2] (setting [8]), the EC50 is 0.023 µM.
For the compound `O=C(c1cncc2cn[nH]c12)N1CCN(C2c3ccccc3CS(=O)(=O)c3ccccc32)CC1` (stereo not drawn) [NZ-822, [4-(5,5-dioxo-6,11-dihydrobenzo[c][1]benzothiepin-11-yl)piperazin-1-yl]-(1H-pyrazolo[4,3-c]pyridin-7-yl)methanone], in data set [1] (setting [7]), the IC50 stood at 0.054 µM. Besides, the EC50 in data set [2] (setting [8]) worked out at 0.089 µM.
In the case of `O=C(c1cccnc1Cl)N1CCN(C2c3ccccc3CCc3ccccc32)CC1` [ZS-333, (2-chloro-3-pyridyl)-[4-(2-tricyclo[9.4.0.03,8]pentadeca-1(11),3(8),4,6,12,14-hexaenyl)piperazin-1-yl]methanone], the EC50 in data set [2] (setting [6]) and in data set [3] was greater than 9.61 µM throughout. Besides, the CC50 at 24 h in data set [4] was greater than 39.8 µM.
Consider `O=C(O)c1cncc(C(=O)N2CCN(C3c4ccccc4CCc4ccccc43)CC2)c1` [ZS-335, 5-[4-(2-tricyclo[9.4.0.03,8]pentadeca-1(11),3(8),4,6,12,14-hexaenyl)piperazine-1-carbonyl]pyridine-3-carboxylic acid], for which the EC50 in data set [2] (setting [6]) and in data set [3] was greater than 9.61 µM throughout. This compound also displayed a CC50 at 24 h in data set [4] greater than 39.8 µM.
Consider `O=C(c1ccc(Cl)nc1)N1CCN(C2c3ccccc3CCc3ccccc32)CC1` [ZS-337, (6-chloro-3-pyridyl)-[4-(2-tricyclo[9.4.0.03,8]pentadeca-1(11),3(8),4,6,12,14-hexaenyl)piperazin-1-yl]methanone], for which the EC50 in data set [2] (setting [6]) and in data set [3] was greater than 9.61 µM each time. The compound also had a half-maximal cytotoxic concentration (CC50) at 24 h in data set [4] greater than 39.8 µM.
